# Measurements reported in patent US20170275287A1, “NOVEL N2, N4, N7, 6-TETRASUBSTITUTED PTERIDINE-2,4,7-TRIAMINE AND 2, 4, 6, 7-TETRASUBSTITUTED PTERIDINE COMPOUNDS AND METHODS OF SYNTHESIS AND USE THEREOF” (Janus Biotherapeutics, Inc., priority 2014, published 2017).
# Where two headings read alike, the source gives them in different places.
# Columns and labels:
# [1] = target: COMT (catechol-O-methyl transferase) (Sus scrofa, UniProt D3K5L3); test: Receptor cross-reactivity enzyme panel (CEREP); type: biochemical; details: read-out: % Ligand Inhibition, COMT
# Description: (§1) The receptor cross-reactivity profile is composed of 71 binding and 27 enzyme assays. The binding assay panel is broadly defined with roughly an equal number of selective, central and peripheral therapeutically relevant targets. The enzyme assay panel includes the most representative targets from diverse enzyme families with a particular focus on phosphatases and specific enzymes involved in cell cycle regulation. Assays where performed by CEREP, Seattle, Wash., with protocols similar to Cordeaux, Y. et al., 2004 Brit. J. Pharmacol., 143:705-714. JB6121 was tested for receptor cross reactivity at 10 μM for approximately 100 receptors and enzymes. Any % inhibition greater than 50% (IC50<10 μM) is highlighted below in Table 7.
# [2] = test system: M (non-selective) Muscarinic Receptor; test: Receptor cross-reactivity binding panel (CEREP)
# Description: as §1
# [3] = Metabolic stability, human liver microsomes (CEREP); type: in vitro ADME
# Procedure: (§2) Preliminary screening measures were conducted by CEREP. All values fall within acceptable limits (Table 5). Solubility assays where performed by CEREP, Seattle, Wash., according to Lipinski, C. A. et al., 1997, Adv. Drug Del. Rev., 46:3-26. Protein binding assays where performed by CEREP, Seattle, Wash., according to Banker, M. J. et al., 2003, J. Pharm. Sci., 92:967-974. Permeability assays where performed by CEREP, Seattle, Wash. according to Hildalgo, I. J., 1998, Gastroenterology, 96:736-749. Metabolic stability assays where performed by CEREP, Seattle, Wash., according to Obach, R. S. et al., 1997, J. Pharmacol. Exp. Ther., 283:46-58. P-glycoprotein inhibition assays where performed by CEREP, Seattle, Wash., according to Polli, J. W. et al., 2001, J. Pharm. Exp. Ther., 299:620-628. Cell viability assays where performed by CEREP, Seattle, Wash., according to Mosmann, T., 1983, J. Immunol. Met. 65:55-62. hERG automated patch clamp assays where performed by CEREP, Seattle, Wash., according to Mathes, C., 2006, Expert Opin. Ther. Targets, 10:230-241.
# [4] = Aqueous solubility (CEREP); type: physicochemical
# Procedure: as §2
# [5] = target: T1, CYP2C9 (Homo sapiens, UniProt P11712); test: Cytochrome p450 inhibition (CEREP); type: in vitro ADME; details: 10 μM
# T1 construct: CEREP (contract laboratory)
# Procedure: (§3) JB6121 was also tested for CYP inhibition, see Table 6 below. Assays where performed by CEREP, Seattle, Wash., according to Atkinson, A et al., 2005, Drug Metab. Dispos. 33:1637-1647.
# [6] = target: T2, CYP3A4 (Homo sapiens, UniProt P08684); test: Cytochrome p450 inhibition (CEREP); type: in vitro ADME; details: 10 μM
# T2 construct: CEREP (contract laboratory)
# Procedure: as §3
# [7] = target: T3, CYP2B6 (Homo sapiens, UniProt P20813); test: Cytochrome p450 inhibition (CEREP); type: in vitro ADME; details: 10 μM
# T3 construct: CEREP (contract laboratory)
# Procedure: as §3
# [8] = PK/PD study: whole blood JB6121 after 7 days oral dosing; type: in vivo, Sprague-Dawley rats; details: for AUC(0-t)/D / Cmax/D / AUC(0-t) / Cmax / Tmax / AUC / half-life: Day 7; for AUC(0-t) / Cmax / Tmax / concentration at 2 h / concentration at 3 h / concentration at 4 h / concentration at 5 h / AUC / half-life: Sprague-Dawley, rat, whole blood; for concentration at 2 h: Day 7, 2 h; for concentration at 3 h: Day 7, 3 h; for concentration at 4 h: Day 7, 4 h; for concentration at 5 h: Day 7, 5 h; for AUC: read-out: AUC Extrap; for half-life: read-out: t½ (converted)
# Procedure: The objective of this study was to collect serum following ODN CpG 1668 administration and to determine the pharmacokinetics of JB6121 following oral administration to Sprague-Dawley rats for 7 days. There was a pre-test to establish the appropriate agonist dose for a TLR9 ligand, CpG DNA ODN 1668, in rats using serum IL-12 as the monitored cytokine, groups 1-3, see table 6. Whole blood samples for serum were collected terminally from each animal 3 hours following dosing with ODN CpG 1668. Serum IL-12 was determined by ELISA, data not shown. An agonist dose of lmg/kg was selected for the next phase of the study. For groups administered JB6121 (Groups 4-7), formulations were corrected for base/salt components and not corrected for purity. On the initial day of dose administration, JB6121 formulations were prepared using sterile PBS to the adjusted target dosing concentrations using a factor of 0.8265 to correct for salt content. Dosing was performed as outlined in the following Table 9.
# Animals were assigned to four groups (groups 4-7) and administered JB6121 at 0.39, 1.56, 6.25, or 25 mg/kg in a volume of […] once per day by oral gavage for 7 days. On Day 7, two hours following the JB6121 dose (approximate Cmax), ODN CpG 1668 was administered as a single IP dose at 1 mg/kg in a volume of 1 mL/kg. Whole blood samples for bioanalysis and serum samples for serum cytokine analysis were collected by tail vein bleeding or terminally by cardiac puncture at t=2, 3, 4 and 5 h.
# [9] = target: T4, P-glycoprotein (Homo sapiens, UniProt P08183); test: P-glycoprotein inhibition (CEREP); type: in vitro ADME
# T4 construct: CEREP (contract laboratory)
# Procedure: as §2
# T2 sequence (P08684 whole entry): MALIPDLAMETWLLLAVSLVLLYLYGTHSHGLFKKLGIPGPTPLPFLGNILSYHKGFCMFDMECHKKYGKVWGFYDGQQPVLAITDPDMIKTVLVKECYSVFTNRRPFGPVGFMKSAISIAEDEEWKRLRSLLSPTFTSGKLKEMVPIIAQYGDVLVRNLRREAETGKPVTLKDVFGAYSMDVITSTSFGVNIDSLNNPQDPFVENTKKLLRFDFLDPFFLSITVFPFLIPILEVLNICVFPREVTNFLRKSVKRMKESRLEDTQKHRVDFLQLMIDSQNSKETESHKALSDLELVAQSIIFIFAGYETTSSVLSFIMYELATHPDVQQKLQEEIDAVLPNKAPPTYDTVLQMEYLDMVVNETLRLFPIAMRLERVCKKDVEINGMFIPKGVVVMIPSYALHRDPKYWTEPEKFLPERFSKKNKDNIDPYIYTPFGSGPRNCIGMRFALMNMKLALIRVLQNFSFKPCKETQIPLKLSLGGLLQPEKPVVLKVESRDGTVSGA
# T3 sequence (P20813 whole entry): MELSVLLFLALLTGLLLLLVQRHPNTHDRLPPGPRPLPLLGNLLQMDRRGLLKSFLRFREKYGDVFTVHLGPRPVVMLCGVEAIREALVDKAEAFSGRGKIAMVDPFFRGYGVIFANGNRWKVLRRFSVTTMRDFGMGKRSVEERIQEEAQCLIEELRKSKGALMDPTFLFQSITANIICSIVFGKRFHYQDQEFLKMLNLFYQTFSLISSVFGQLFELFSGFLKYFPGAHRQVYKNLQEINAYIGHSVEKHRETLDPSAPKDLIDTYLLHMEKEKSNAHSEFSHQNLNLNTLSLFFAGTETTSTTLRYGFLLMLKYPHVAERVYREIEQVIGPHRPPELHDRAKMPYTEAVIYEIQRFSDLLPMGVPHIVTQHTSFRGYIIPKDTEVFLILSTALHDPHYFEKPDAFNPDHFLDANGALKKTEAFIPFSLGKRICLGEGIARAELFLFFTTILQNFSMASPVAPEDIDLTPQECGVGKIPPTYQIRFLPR
# Sequence of COMT (catechol-O-methyl transferase) (D3K5L3 entry or part of it): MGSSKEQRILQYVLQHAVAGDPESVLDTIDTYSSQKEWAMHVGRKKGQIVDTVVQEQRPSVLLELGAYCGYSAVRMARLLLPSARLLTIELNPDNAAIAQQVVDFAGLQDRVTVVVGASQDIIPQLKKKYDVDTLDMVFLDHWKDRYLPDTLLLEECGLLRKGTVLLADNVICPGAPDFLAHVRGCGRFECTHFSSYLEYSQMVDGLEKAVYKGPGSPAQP
# T4 sequence (P08183 whole entry): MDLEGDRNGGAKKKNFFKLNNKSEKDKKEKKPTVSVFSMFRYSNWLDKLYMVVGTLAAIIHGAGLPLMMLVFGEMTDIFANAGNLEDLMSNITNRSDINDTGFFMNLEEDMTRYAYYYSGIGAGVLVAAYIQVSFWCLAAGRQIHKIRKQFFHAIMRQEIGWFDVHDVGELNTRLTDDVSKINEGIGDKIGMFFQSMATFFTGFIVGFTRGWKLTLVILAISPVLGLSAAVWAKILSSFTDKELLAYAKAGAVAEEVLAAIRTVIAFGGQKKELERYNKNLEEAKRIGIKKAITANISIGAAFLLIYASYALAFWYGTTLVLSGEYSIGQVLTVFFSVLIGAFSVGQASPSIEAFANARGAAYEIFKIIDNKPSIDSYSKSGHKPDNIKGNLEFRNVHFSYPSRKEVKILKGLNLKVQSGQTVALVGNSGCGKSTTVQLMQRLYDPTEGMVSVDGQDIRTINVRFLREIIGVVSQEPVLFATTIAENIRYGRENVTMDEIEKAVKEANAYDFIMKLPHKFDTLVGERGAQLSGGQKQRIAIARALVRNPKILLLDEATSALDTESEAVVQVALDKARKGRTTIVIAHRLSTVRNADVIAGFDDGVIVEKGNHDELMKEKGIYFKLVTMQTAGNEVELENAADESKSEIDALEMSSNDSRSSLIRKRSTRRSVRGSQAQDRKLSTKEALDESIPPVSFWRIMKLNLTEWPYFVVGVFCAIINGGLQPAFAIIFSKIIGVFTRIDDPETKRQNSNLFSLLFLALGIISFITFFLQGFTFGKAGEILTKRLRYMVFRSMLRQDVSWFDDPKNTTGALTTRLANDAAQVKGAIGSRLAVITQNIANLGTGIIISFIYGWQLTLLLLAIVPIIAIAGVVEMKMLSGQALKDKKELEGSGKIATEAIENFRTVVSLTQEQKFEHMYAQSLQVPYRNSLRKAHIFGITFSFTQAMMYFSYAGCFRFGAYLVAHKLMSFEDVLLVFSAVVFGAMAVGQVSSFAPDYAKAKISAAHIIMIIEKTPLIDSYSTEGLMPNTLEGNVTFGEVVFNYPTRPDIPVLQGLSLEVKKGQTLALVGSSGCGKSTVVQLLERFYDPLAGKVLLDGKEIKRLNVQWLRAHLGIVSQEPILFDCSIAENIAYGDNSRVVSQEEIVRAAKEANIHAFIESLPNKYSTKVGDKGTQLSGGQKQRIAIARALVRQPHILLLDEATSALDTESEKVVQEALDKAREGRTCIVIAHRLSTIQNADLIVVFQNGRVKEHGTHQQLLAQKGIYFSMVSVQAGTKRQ
# T1 sequence (P11712 whole entry): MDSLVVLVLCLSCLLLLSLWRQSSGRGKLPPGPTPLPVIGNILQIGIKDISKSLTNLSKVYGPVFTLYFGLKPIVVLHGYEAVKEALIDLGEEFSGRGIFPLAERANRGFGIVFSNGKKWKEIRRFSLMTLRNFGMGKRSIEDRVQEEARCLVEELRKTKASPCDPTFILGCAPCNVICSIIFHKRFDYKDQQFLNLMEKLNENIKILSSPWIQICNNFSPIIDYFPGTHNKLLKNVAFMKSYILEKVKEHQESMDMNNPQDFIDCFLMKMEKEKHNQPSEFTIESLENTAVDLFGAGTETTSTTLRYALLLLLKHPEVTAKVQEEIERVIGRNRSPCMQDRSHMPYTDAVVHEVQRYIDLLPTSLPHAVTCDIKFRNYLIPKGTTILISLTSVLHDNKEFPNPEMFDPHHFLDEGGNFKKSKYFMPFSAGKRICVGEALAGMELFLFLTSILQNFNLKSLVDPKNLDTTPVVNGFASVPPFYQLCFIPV
structure (smiles),measurement,setting,value
"CN1CCN(c2nc(NCCN3CCOCC3)c3nc(Cl)c(NCCN4CCOCC4)nc3n2)CC1 [JB6121, 6-chloro-2-(4-methylpiperazin-1-yl)-N^4,N^7-bis(2-morpholinoethyl)pteridine-4,7-diamine]",inhibition at 10 µM,[1],53.5%
same,"% Ligand Inhibition, M (non-selective) Muscarinic Receptor",[2]; 10 μM,63.1%
same,IC50,"[2]; most-likely, estimated from 10 μM result",> 5 µM
same,"Metabolic Stability, Human Liver Microsomes at 60 min. % remaining",[3],75%
same,solubility,"[4]; PBS, pH 7.4, aqueous buffer, read-out: Aqueous Solubility, PBS, pH 7.4",> 200 µM
same,solubility,"[4]; simulated gastric fluid, read-out: Aqueous Solubility, simulated Gastric Fluid",> 200 µM
same,solubility,"[4]; simulated intestinal fluid, fassgf or other biorelevant, read-out: Aqueous Solubility, simulated Intestinal Fluid",195 µM
same,CYP2C9 Mean % Control,[5],46.7%
same,"CYP3A4, BFC substrate Mean % Control",[6]; BFC substrate,94.1%
same,"CYP3A4, BzRes substrate Mean % Control",[6]; BzRes substrate,104.8%
same,CYP2B6 Mean % Control,[7],58.2%
same,AUC(0-t)/D,[8]; 0.39 mg/kg PO daily x7 days,24.8 ng · h/mL/mg/kg/day
same,Cmax/D,[8]; 0.39 mg/kg PO daily x7 days,13.4 ng/mL/mg/kg/day
same,AUC(0-t)/D,[8]; 1.56 mg/kg PO daily x7 days,13.6 ng · h/mL/mg/kg/day
same,Cmax/D,[8]; 1.56 mg/kg PO daily x7 days,6.96 ng/mL/mg/kg/day
same,AUC(0-t)/D,[8]; 6.25 mg/kg PO daily x7 days,34.8 ng · h/mL/mg/kg/day
same,Cmax/D,[8]; 6.25 mg/kg PO daily x7 days,15.2 ng/mL/mg/kg/day
same,AUC(0-t)/D,[8]; 25 mg/kg PO daily x7 days,63 ng · h/mL/mg/kg/day
same,Cmax/D,[8]; 25 mg/kg PO daily x7 days,28.4 ng/mL/mg/kg/day
same,AUC(0-t),[8]; 0.39 mg/kg PO daily x7 days,9.68 ng·h/mL
same,Cmax,[8]; 0.39 mg/kg PO daily x7 days,5.24 ng/mL
same,Tmax,[8]; 0.39 mg/kg PO daily x7 days,3.8 h
same,concentration at 2 h,[8]; 0.39 mg/kg PO daily x7 days,2.5 ng/mL
same,concentration at 3 h,[8]; 0.39 mg/kg PO daily x7 days,3.88 ng/mL
same,concentration at 4 h,[8]; 0.39 mg/kg PO daily x7 days,5.57 ng/mL
same,concentration at 5 h,[8]; 0.39 mg/kg PO daily x7 days,6.47 ng/mL
same,AUC,[8]; 0.39 mg/kg PO daily x7 days,133 ng·h/mL
same,half-life,[8]; 0.39 mg/kg PO daily x7 days,8.75 h
same,AUC(0-t),[8]; 1.56 mg/kg PO daily x7 days,21.3 ng·h/mL
same,Cmax,[8]; 1.56 mg/kg PO daily x7 days,10.9 ng/mL
same,Tmax,[8]; 1.56 mg/kg PO daily x7 days,4 h
same,concentration at 2 h,[8]; 1.56 mg/kg PO daily x7 days,3.93 ng/mL
same,concentration at 3 h,[8]; 1.56 mg/kg PO daily x7 days,8.2 ng/mL
same,concentration at 4 h,[8]; 1.56 mg/kg PO daily x7 days,7.8 ng/mL
same,concentration at 5 h,[8]; 1.56 mg/kg PO daily x7 days,7.76 ng/mL
same,AUC,[8]; 1.56 mg/kg PO daily x7 days,231 ng·h/mL
same,half-life,[8]; 1.56 mg/kg PO daily x7 days,21.2 h
same,AUC(0-t),[8]; 6.25 mg/kg PO daily x7 days,217 ng·h/mL
same,Cmax,[8]; 6.25 mg/kg PO daily x7 days,95 ng/mL
same,Tmax,[8]; 6.25 mg/kg PO daily x7 days,3.2 h
same,concentration at 2 h,[8]; 6.25 mg/kg PO daily x7 days,27 ng/mL
same,concentration at 3 h,[8]; 6.25 mg/kg PO daily x7 days,94.8 ng/mL
same,concentration at 4 h,[8]; 6.25 mg/kg PO daily x7 days,77.8 ng/mL
same,concentration at 5 h,[8]; 6.25 mg/kg PO daily x7 days,63.8 ng/mL
same,AUC,[8]; 6.25 mg/kg PO daily x7 days,609 ng·h/mL
same,half-life,[8]; 6.25 mg/kg PO daily x7 days,4.09 h
same,AUC(0-t),[8]; 25 mg/kg PO daily x7 days,1570 ng·h/mL
same,Cmax,[8]; 25 mg/kg PO daily x7 days,711 ng/mL
same,Tmax,[8]; 25 mg/kg PO daily x7 days,3 h
same,concentration at 2 h,[8]; 25 mg/kg PO daily x7 days,401 ng/mL
same,concentration at 3 h,[8]; 25 mg/kg PO daily x7 days,711 ng/mL
same,concentration at 4 h,[8]; 25 mg/kg PO daily x7 days,487 ng/mL
same,concentration at 5 h,[8]; 25 mg/kg PO daily x7 days,366 ng/mL
same,AUC,[8]; 25 mg/kg PO daily x7 days,2770 ng·h/mL
same,half-life,[8]; 25 mg/kg PO daily x7 days,2.2 h
same,inhibition at 100 µM,[9],1%
